Measured values from the NIST ThermoML archive (doi:10.1021/acs.jced.8b00199).
Numbers after ± are expanded uncertainties.

Assay: molar heat capacity at constant pressure
Settings: Liquid, Flow calorimetry

CCCCCCCCCC(=O)OCC [ethyl decanoate]
Settings | molar heat capacity at constant pressure [J/K/mol]
294 K, 100 kPa | 400.39 ± 4
294 K, 3080 kPa | 399.98 ± 4
294 K, 6090 kPa | 399.53 ± 4
294 K, 8970 kPa | 399.07 ± 4
294 K, 12120 kPa | 398.72 ± 4
294.1 K, 14870 kPa | 398.28 ± 4
294.1 K, 17910 kPa | 397.82 ± 4
294.1 K, 21090 kPa | 397.38 ± 4
294.1 K, 24040 kPa | 396.93 ± 4
304 K, 130 kPa | 406.09 ± 4.1
304 K, 3030 kPa | 405.62 ± 4.1
304 K, 6160 kPa | 405.12 ± 4.1
304 K, 9030 kPa | 404.66 ± 4.1
304 K, 11950 kPa | 404.19 ± 4.1
304 K, 15090 kPa | 403.69 ± 4.1
304 K, 17870 kPa | 403.23 ± 4.1
304.1 K, 21100 kPa | 402.75 ± 4.1
304.1 K, 24050 kPa | 402.24 ± 4.1
313.9 K, 110 kPa | 411.45 ± 4.2
313.9 K, 2920 kPa | 410.92 ± 4.2
313.9 K, 5990 kPa | 410.45 ± 4.2
313.9 K, 9080 kPa | 409.95 ± 4.1
314 K, 11910 kPa | 409.43 ± 4.1
314 K, 15030 kPa | 408.93 ± 4.1
314 K, 18090 kPa | 408.41 ± 4.1
314 K, 21080 kPa | 407.89 ± 4.1
314 K, 24110 kPa | 407.34 ± 4.1
323.8 K, 150 kPa | 416.54 ± 4.2
323.9 K, 3040 kPa | 416.03 ± 4.2
323.9 K, 5930 kPa | 415.53 ± 4.2
323.9 K, 9070 kPa | 415.03 ± 4.2
323.9 K, 11980 kPa | 414.54 ± 4.2
323.9 K, 15050 kPa | 414.03 ± 4.2
324 K, 18050 kPa | 413.54 ± 4.2
324 K, 21210 kPa | 413.06 ± 4.2
324 K, 24030 kPa | 412.57 ± 4.2
333.8 K, 120 kPa | 423.19 ± 4.3
333.8 K, 2960 kPa | 422.7 ± 4.3
333.8 K, 5990 kPa | 422.28 ± 4.3
333.8 K, 9040 kPa | 421.77 ± 4.3
333.9 K, 12030 kPa | 421.17 ± 4.2
333.9 K, 14940 kPa | 420.66 ± 4.2
333.9 K, 18050 kPa | 420.15 ± 4.2
333.9 K, 21100 kPa | 419.65 ± 4.2
334 K, 24050 kPa | 419.11 ± 4.2
343.7 K, 150 kPa | 429.52 ± 4.3
343.7 K, 3000 kPa | 429.02 ± 4.3
343.7 K, 6190 kPa | 428.5 ± 4.3
343.8 K, 8990 kPa | 427.96 ± 4.3
343.8 K, 12100 kPa | 427.46 ± 4.3
343.8 K, 14910 kPa | 426.93 ± 4.3
343.8 K, 17990 kPa | 426.4 ± 4.3
343.8 K, 21010 kPa | 426.07 ± 4.3
343.9 K, 23970 kPa | 425.54 ± 4.3
353.7 K, 110 kPa | 435.96 ± 4.4
353.7 K, 2980 kPa | 435.41 ± 4.4
353.7 K, 6020 kPa | 434.91 ± 4.4
353.7 K, 8990 kPa | 434.4 ± 4.4
353.8 K, 11920 kPa | 433.87 ± 4.4
353.8 K, 14940 kPa | 433.36 ± 4.4
353.8 K, 17960 kPa | 432.85 ± 4.4
353.8 K, 21070 kPa | 432.33 ± 4.4
353.9 K, 23980 kPa | 431.81 ± 4.4

CCCCCCCC(=O)OCC [ethyl octanoate]
Settings | molar heat capacity at constant pressure [J/K/mol]
294 K, 160 kPa | 339.59 ± 3.4
294 K, 3020 kPa | 339.17 ± 3.4
294.1 K, 5960 kPa | 338.74 ± 3.4
294.1 K, 9040 kPa | 338.3 ± 3.4
294.1 K, 12020 kPa | 337.9 ± 3.4
294.1 K, 14980 kPa | 337.54 ± 3.4
294.1 K, 17990 kPa | 337.13 ± 3.4
294.1 K, 21060 kPa | 336.71 ± 3.4
294.1 K, 23980 kPa | 336.29 ± 3.4
303.7 K, 2940 kPa | 344.3 ± 3.5
303.7 K, 6070 kPa | 343.83 ± 3.5
303.8 K, 8950 kPa | 343.35 ± 3.5
303.8 K, 12020 kPa | 342.9 ± 3.5
303.9 K, 15040 kPa | 342.5 ± 3.5
304 K, 18130 kPa | 342.09 ± 3.5
304 K, 21050 kPa | 341.67 ± 3.5
304 K, 24030 kPa | 341.18 ± 3.5
305.6 K, 160 kPa | 344.76 ± 3.5
314.3 K, 170 kPa | 350.6 ± 3.5
314.3 K, 3140 kPa | 350.17 ± 3.5
314.3 K, 6130 kPa | 349.71 ± 3.5
314.4 K, 9110 kPa | 349.29 ± 3.5
314.4 K, 12100 kPa | 348.89 ± 3.5
314.4 K, 15030 kPa | 348.53 ± 3.5
314.5 K, 18310 kPa | 348.11 ± 3.5
314.5 K, 20910 kPa | 347.72 ± 3.5
314.5 K, 24100 kPa | 347.25 ± 3.5
323.8 K, 130 kPa | 355.82 ± 3.6
323.8 K, 3030 kPa | 355.4 ± 3.6
323.8 K, 6160 kPa | 354.96 ± 3.6
323.8 K, 21030 kPa | 352.89 ± 3.6
323.9 K, 9300 kPa | 354.54 ± 3.6
323.9 K, 12120 kPa | 354.09 ± 3.6
323.9 K, 15230 kPa | 353.71 ± 3.6
323.9 K, 18110 kPa | 353.28 ± 3.6
323.9 K, 24100 kPa | 352.47 ± 3.6
333.7 K, 110 kPa | 360.49 ± 3.6
333.7 K, 3060 kPa | 360.06 ± 3.6
333.7 K, 6010 kPa | 359.65 ± 3.6
333.8 K, 9110 kPa | 359.17 ± 3.6
333.8 K, 11920 kPa | 358.75 ± 3.6
333.8 K, 15070 kPa | 358.37 ± 3.6
333.8 K, 18080 kPa | 357.9 ± 3.6
333.9 K, 21120 kPa | 357.47 ± 3.6
333.9 K, 24000 kPa | 357.06 ± 3.6
343.5 K, 130 kPa | 365.32 ± 3.7
343.5 K, 2950 kPa | 364.93 ± 3.7
343.5 K, 6040 kPa | 364.48 ± 3.7
343.5 K, 8990 kPa | 364.02 ± 3.7
343.6 K, 12070 kPa | 363.6 ± 3.7
343.7 K, 15050 kPa | 363.15 ± 3.7
343.8 K, 18070 kPa | 362.7 ± 3.7
343.8 K, 21010 kPa | 362.3 ± 3.7
343.8 K, 24090 kPa | 361.84 ± 3.7
353.6 K, 130 kPa | 370.06 ± 3.7
353.6 K, 3030 kPa | 369.66 ± 3.7
353.6 K, 6060 kPa | 369.24 ± 3.7
353.7 K, 8990 kPa | 368.8 ± 3.7
353.7 K, 11900 kPa | 368.4 ± 3.7
353.8 K, 15040 kPa | 367.99 ± 3.7
353.9 K, 18020 kPa | 367.57 ± 3.7
354 K, 20960 kPa | 367.14 ± 3.7
354 K, 24110 kPa | 366.72 ± 3.7
